Drawing on patent US8648066B2 (Exelixis, Inc., priority 2009, dated 2014), this text covers IC50 for 22 compounds.

In the assay the target is mTOR/GbL/Raptor (mTORC1) (Homo sapiens, UniProt P42345). The assay is described as follows: mTOR/GbL/Raptor (mTORC1) ELISA assay. The note with it: phosphorylation of 4E-BP1; 0.2 nM mTORC1, 10 μM ATP; read-out: IC50 in this assay (mTORC1 ELISA). Format: biochemical. How it is done: The measurement of mTORC1 enzyme activity was performed in an ELISA assay format following the phosphorylation of 4E-BP1 protein. All experiments were performed in the 384-well format. Generally, 0.5 μL DMSO containing varying concentrations of the test Compound was mixed with 15 μL enzyme solution. Kinase reactions were initiated with the addition of 15 μL of substrates-containing solution. The assay conditions were as follows; 0.2 nM mTORC1, 10 μM ATP and 50 nM NHis-tagged 4E-BP1 in 20 mM Hepes, pH 7.2, 1 mM DTT, 50 mM NaCl, 10 mM MnCl2, 0.02 mg/mL BSA, 0.01% CHAPS, 50 mM β-glycerophosphate. Following an incubation of 120 minutes at ambient temperature, 20 μL of the reaction volume was transferred to a Ni-Chelate-coated 384-well plate. The binding step of the 4E-BP1 protein proceeded for 60 minutes, followed by washing 4 times each with 50 μL of Tris-buffered saline solution (TBS). Anti-phospho-4E-BP1 rabbit-IgG (20 μL, 1:5000) in 5% BSA-TBST (0.2% Tween-20 in TBS) was added and further incubated for 60 minutes. Incubation with a secondary HRP-tagged anti-IgG was similarly performed after washing off the primary antibody (4 washes of 50 μL). Following the final wash step with TBST, 20 μL of SuperSignal ELISA Femto (Pierce Biotechnology) was added and the luminescence measured using an EnVision plate reader.
Regarding `Cc1nc2ccc(-c3ccc4c(c3)CN(c3ncnc(C)c3Cc3cc(F)cc(F)c3)CCO4)cc2[nH]1` [Example 91, 4-(5-[(3,5-difluorophenyl)methyl]-6-methylpyrimidin-4-yl}-7-(2-methyl-1H-benzimidazol-6-yl)-2,3,4,5-tetrahydro-1,4-benzoxazepine], the IC50 (as a rule, the point on the concentration scale where inhibition reaches its midpoint) was in the range of 0.01 to 0.05 µM.
Consider `Cc1nc2ccc(-c3ccc4c(c3)CN(c3ncnc(C)c3Cc3cccc(C(F)(F)F)c3)CCO4)cc2[nH]1` [Example 92, 7-(2-methyl-1H-benzimidazol-6-yl)-4-(6-methyl-5-{[3-(trifluoromethyl)phenyl]methyl}pyrimidin-4-yl)-2,3,4,5-tetrahydro-1,4-benzoxazepine], for which the IC50 fell in the range of 0.25 to 1 µM.
Turning to `Cc1nc2ccc(-c3ccc4c(c3)CN(c3ncnc(C)c3Cc3ccc(Cl)c(N(C)C)c3)CCO4)cc2[nH]1` [Example 93, 2-chloro-N,N-dimethyl-5-({4-methyl-6-[7-(2-methyl-1H-benzimidazol-6-yl)-2,3-dihydro-1,4-benzoxazepin-4(5H)-yl]pyrimidin-5-yl}methyl)aniline], the IC50 is ≤ 0.01 µM.
For `Cc1nc2ccc(-c3ccc4c(c3)CN(c3ncnc(C)c3C(C)c3cccc(F)c3)CCO4)cc2[nH]1` (stereo not shown) [Example 94, 4-{5-[1-(3-fluorophenyl)ethyl]-6-methylpyrimidin-4-yl}-7-(2-methyl-1H-benzimidazol-6-yl)-2,3,4,5-tetrahydro-1,4-benzoxazepine], the IC50 is ≤ 0.01 µM.
As to `Cc1nc2ccc(-c3ccc4c(c3)CN(c3ncnc5c3CCC(C)(C)C5)CCO4)cc2[nH]1` [Example 95, 4-(7,7-dimethyl-5,6,7,8-tetrahydroquinazolin-4-yl)-7-(2-methyl-1H-benzimidazol-6-yl)-2,3,4,5-tetrahydro-1,4-benzoxazepine], the IC50 was 0.01 to 0.05 µM.
With `Cc1nc2ccc(-c3ccc4c(c3)CN(c3ccnc(N)n3)CCO4)cc2[nH]1` [Example 96, 4-[7-(2-methyl-1H-benzimidazol-6-yl)-2,3-dihydro-1,4-benzoxazepin-4(5H)-yl]pyrimidin-2-amine], the IC50 is 0.25 to 1 µM.
As for `Cc1nc(C)c(Cc2ccc(F)cc2)c(N2CCOc3ccc(-c4ccc5nc(C)[nH]c5c4)cc3C2)n1` [Example 97, 4-{5-[(4-fluorrophenyl)methyl]-2,6-dimethylpyrimidin-4-yl}-7-(2-methyl-1H-benzimidazol-6-yl)-2,3,4,5-tetrahydro-1,4-benzoxazepine], the IC50 was ≤ 0.01 µM.
Take `Cc1nc2ccc(-c3ccc4c(c3)CN(c3ccnc5ccccc35)CCO4)cc2[nH]1` [Example 98, 7-(2-methyl-1H-benzimidazol-6-yl)-4-quinolin-4-yl-2,3,4,5-tetrahydro-1,4-benzoxazepine]: the IC50 was in the range of 0.05 to 0.25 µM.
As to `Cc1nc2ccc(-c3ccc4c(c3)CN(c3cc(C(F)(F)F)nc5ccccc35)CCO4)cc2[nH]1` [Example 99, 7-(2-methyl-1H-benzimidazol-6-yl)-4-[2-(trifluoromethyl)quinolin-4-yl]-2,3,4,5-tetrahydro-1,4-benzoxazepine], the IC50 lay in the range of 0.05 to 0.25 µM.
Consider `Cc1nc2ccc(-c3ccc4c(c3)CN(c3cc(-c5ccccc5)nc5ccccc35)CCO4)cc2[nH]1` [Example 100, 7-(2-methyl-1H-benzimidazol-6-yl)-4-(2-phenylquinolin-4-yl)-2,3,4,5-tetrahydro-1,4-benzoxazepine], for which the IC50 lay within 0.25 to 1 µM.
Take `Cc1nc2ccc(-c3ccc4c(c3)CN(c3ccnc(C)c3Cc3ccccc3)CCO4)cc2[nH]1` [Example 101, 7-(2-methyl-1H-benzimidazol-6-yl)-4-[2-methyl-3-(phenylmethyl)pyridin-4-yl]-2,3,4,5-tetrahydro-1,4-benzoxazepine]: the IC50 fell in the range of 0.01 to 0.05 µM.
Turning to `Cc1nc2ccc(-c3ccc4c(c3)CN(c3ccnc(C)c3Cc3ccc(F)cc3)CCO4)cc2[nH]1` [Example 102, 4-{3-[(4-fluorophenyl)methyl]-2-methylpyridin-4-yl}-7-(2-methyl-1H-benzimidazol-6-yl)-2,3,4,5-tetrahydro-1,4-benzoxazepine], the IC50 is ≤ 0.01 µM.
Consider `Cc1nc2ccc(-c3ccc4c(c3)CN(c3ccnc(C)c3Cc3cccc(F)c3)CCO4)cc2[nH]1` [Example 103, 4-{3-[(3-fluorophenyl)methyl]-2-methylpyridin-4-yl}-7-(2-methyl-1H-benzimidazol-6-yl)-2,3,4,5-tetrahydro-1,4-benzoxazepine], for which the IC50 is ≤ 0.01 µM.
As for `Cc1nc2ccc(-c3ccc4c(c3)CN(c3nccc5ccccc35)CCO4)cc2[nH]1` [Example 105, 4-isoquinolin-1-yl-7-(2-methyl-1H-benzimidazol-6-yl)-2,3,4,5-tetrahydro-1,4-benzoxazepine], the figure is 0.05 to 0.25 µM; as for `COC(=O)Nc1nc2ccc(-c3ccc4c(c3)CN(c3ccncn3)CCO4)cc2[nH]1` [Example 107, methyl-6[(4-pyrimidin-4-yl-2,3,4,5-tetrahydro-1,4-benzoxazepin-7-yl)-1H-benzimidazol-2-yl]carbamate], ≥ 2 µM; as for `COC(=O)Nc1nc2ccc(-c3ccc4c(c3)CN(c3nc(C)nc5ccccc35)CCO4)cc2[nH]1` [Example 108, methyl {6-[4-(2-methylquinazolin-4-yl)-2,3,4,5-tetrahydro-1,4-benzoxazepin-7-yl]-1H-benzimidazol-2-yl}carbamate], 0.25 to 1 µM.
The value for `COC(=O)Nc1nc2ccc(-c3ccc4c(c3)CN(c3ncnc5ccccc35)CCO4)cc2[nH]1` [Example 109, methyl [6-(4-quinazolin-4-yl-2,3,4,5-tetrahydro-1,4-benzoxazepin-7-yl)-1H-benzimidazol-2-yl]carbamate] was 0.25 to 1 µM; that for `COC(=O)Nc1nc2ccc(-c3ccc4c(c3)CN(c3ncnc5[nH]ccc35)CCO4)cc2[nH]1` [Example 110, methyl {6-[4-(7H-pyrrolo[2,3-d]pyrimidin-4-yl)-2,3,4,5-tetrahydro-1,4-benzoxazepin-7-yl]-1H-benzimidazol-2-yl}carbamate] was ≥ 2 µM; that for `COC(=O)Nc1nc2ccc(-c3ccc4c(c3)CN(c3ncnc5cc(OC)c(OC)cc35)CCO4)cc2[nH]1` [Example 111, methyl (6-{4-[6,7-bis(methyloxy)quinazolin-4-yl]-2,3,4,5-tetrahydro-1,4-benzoxazepin-7-yl}-1H-benzimidazol-2-yl)carbamate] was 1 to 2 µM.
As for `COC(=O)Nc1nc2ccc(-c3ccc4c(c3)CN(c3ncnc5ccc(OC)cc35)CCO4)cc2[nH]1` [Example 112, methyl (6-{4-[6-(methyloxy)quinazolin-4-yl]-2,3,4,5-tetrahydro-1,4-benzoxazepin-7-yl}-1H-benzimidazol-2-yl)carbamate], the figure is 0.25 to 1 µM; as for `COC(=O)Nc1nc2ccc(-c3ccc4c(c3)CN(c3ncnc(C)c3Cc3ccc(F)cc3)CCO4)cc2[nH]1` [Example 113, methyl [6-(4-{5-[(4-fluorophenyl)methyl]-6-methylpyrimidin-4-yl}-2,3,4,5-tetrahydro-1,4-benzoxazepin-7-yl)-1H-benzimidazol-2-yl]carbamate], 0.01 to 0.05 µM; as for `COC(=O)Nc1nc2ccc(-c3ccc4c(c3)CN(c3ccnc5ccccc35)CCO4)cc2[nH]1` [Example 114, methyl [6-(4-quinolin-4-yl-2,3,4,5-tetrahydro-1,4-benzoxazepin-7-yl)-1H-benzimidazol-2-yl]carbamate], 0.25 to 1 µM.
